Several values for one entry are separate records, joined by “and”; a condition that tells them apart may be missing. Equal entries are not always repeated. Where two headings read alike, the source gives them in different places. Square brackets hold non-standard residues; d marks the D form. Peptide text beside a SMILES is read from it. NMeF = CN[C@@H](Cc1ccccc1)C(=O)O; NMeL = CN[C@@H](CC(C)C)C(=O)O; NMeV = CN[C@H](C(=O)O)C(C)C; Nle = CCCC[C@H](N)C(=O)O
Columns and labels:
[1] = molecular target: T1, N-terminal FITC-labeled Aβ42 (Homo sapiens, UniProt P05067); experiment: Fluorescence spectroscopic titration of FITC-Aβ42 with ACMs; format: binding
T1 construct: the 40(42)-residue peptide Aβ40(42); purchased Bachem
Protocol: (§1) Fluorescence spectroscopic studies were performed with a Jasco FP-6500 fluorescence spectrophotometer (software: Spectra Manager V1.54.03 (Build 1)) using previously established protocols[12],[20],[25],[26],[32]. Briefly, excitation was at 492 nm and spectra were measured between 500 and 600 nm. All titrations were performed in freshly made solutions of synthetic N-terminal fluorescently-labeled peptide (5 nM) and various amounts of unlabeled peptide in 10 mM sodium phosphate buffer, pH 7.4 (1% HFIP) within 2–5 min following solution preparation as described in refs. [20], [25], [26]. Under these experimental conditions, freshly made solutions of Fluos-IAPP and FITC-Aβ42 (5 nM) consist mostly of monomers[25],[26],[32] and the same was found for Fluos-ACMs (5 nM) (e.g., Supplementary Fig. 5e). Apparent binding affinities (app. KDs) were estimated by using 1/1 binding models (software: OriginPro 2016G, Origin 2021, and GraFit (v.5)) as described in refs. [20], [25], [26], [32]. However, due to the high self-assembly propensities of involved peptides, more complex models might also apply. Determined app. KDs are means (±SD) from three binding curves derived from three independent titration assays.

[2] = molecular target: T2, N-terminal fluorescein-labeled IAPP (Homo sapiens, UniProt P10997); experiment: Fluorescence spectroscopic titration of Fluos-IAPP with ACMs; format: binding
T2 construct: made in house; host or cells: chemical synthesis (Fmoc-SPPS)
T2 sequence (P10997 34-70 limits assumed): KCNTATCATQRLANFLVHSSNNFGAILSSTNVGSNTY
Protocol: as §1

RIN5fm cells = experiment: MTT reduction assay: effects of peptides on formation of cell-damaging IAPP assemblies (incl. IC50 titrations); format: cell-based, rat; details: for IC50: 24 h; for effect on IAPP cytotoxicity (in words): MTT reduction in RIN5fm cells, solutions of the ThT assay
Protocol: Briefly, cells were cultivated and platted in 96-well plates as described in ref. [68]. Aliquots of solutions used for the ThT binding assays (see “ThT binding assays”) were diluted with cell medium at the indicated incubation time points (24 h or 7 days) and added to the cells at the indicated final concentrations. Following incubation with the cells for ~20 h (37 °C, humidified atmosphere, 5% CO2), cell damage was assessed by measuring cellular MTT reduction as described[32],[68]. IC50 values were determined as described[20],[21],[32].

PC12 cells = experiment: MTT reduction assay: cytotoxicity of preformed (TAMRA-)Aβ42 oligomers with or without Nle3-VF; format: cell-based; details: TAMRA-oAb42 (2 h); mean, n = 4
Protocol: Preformed (TAMRA-)oAβ42 and their mixtures with Nle3-VF were then incubated for an additional 2 h (37 °C, shaking 500 rpm; conditions as for the ThT binding assay). Incubation with the cells and the MTT reduction assay were performed as above. Statistical analysis (Supplementary Fig. 27d) was performed by one-way ANOVA and Bonferroni (software: OriginPro 2021).

[3] = Table 2, mean values of the 3 curves, read-out: App. Kd
[4] = app. KD (±SD) of ACM/Aβ42 interactions, titration of FITC-Aβ42 (5 nM; pH 7.4) with ACMs, means (±SD) from three binding curves
[5] = SF 6, Mean values of the 3 curves, read-out: App. Kd
[6] = titration of Fluos-IAPP (5 nM; pH 7.4, 10 mM sodium phosphate, 1% HFIP) with ACMs, 1/1 binding model, means (±SD) from three binding curves

T1 sequence (P05067 672-713 limits assumed): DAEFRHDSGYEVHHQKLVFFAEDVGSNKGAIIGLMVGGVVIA

Compound | Kd [1, 3] [µM] | Kd [1, 4] [µM] | Kd [2, 5] [µM] | Kd [2, 6] [µM] | IC50 (RIN5fm cells) | Kd [2] [µM] | effect on IAPP cytotoxicity (in words) (RIN5fm cells) | Kd ([1]; fluorescence titration, emission at 519 nm, Mean values of the 3 curves, read-out: App. Kd) [µM] | Kd ([2]; Fig. 2a right panel, mean values of the 3 curves, read-out: App. Kd) [µM] | MTT reduction (% control) (PC12 cells)
CCCC[C@H](NC(=O)[C@H](CC(C)C)NC(=O)CNC(=O)[C@@H](NC(=O)[C@@H](NC(=O)[C@H](C)NC(=O)CNC(=O)[C@H](CCCCN)NC(=O)[C@H](CC(N)=O)NC(=O)[C@H](Cc1ccccc1)NC(=O)[C@H](Cc1ccccc1)NC(=O)[C@H](Cc1ccccc1)NC(=O)[C@H](CC(=O)O)NC(=O)[C@H](CCC(=O)O)NC(=O)[C@H](C)NC(=O)[C@H](Cc1ccccc1)N(C)C(=O)[C@H](Cc1ccccc1)NC(=O)[C@H](C(C)C)N(C)C(=O)[C@H](CC(C)C)NC(=O)[C@H](CCCCN)NC(=O)[C@@H](N)CCC(N)=O)[C@@H](C)CC)[C@@H](C)CC)C(=O)N[C@H](C(=O)NCC(=O)NCC(=O)N[C@H](C(=O)N[C@H](C(=O)O)C(C)C)C(C)C)C(C)C [F3-VF] (H-QKL[NMeV]F[NMeF]AEDFFFNKGAIIGL[Nle]VGGVV-OH) | 0.161 | 0.161 | 0.015 | 0.015 | 0.0785 µM | – | – | – | – | –
CCCC[C@H](NC(=O)[C@H](CC(C)C)NC(=O)CNC(=O)[C@@H](NC(=O)[C@@H](NC(=O)[C@H](C)NC(=O)CNC(=O)[C@H](CCCCN)NC(=O)[C@H](CC(N)=O)NC(=O)[C@H](Cc1ccccc1)NC(=O)[C@H](Cc1ccccc1)NC(=O)[C@H](Cc1ccccc1)NC(=O)[C@H](CC(=O)O)NC(=O)[C@H](CCC(=O)O)NC(=O)[C@H](C)NC(=O)[C@H](Cc1ccccc1)NC(=O)[C@H](Cc1ccccc1)N(C)C(=O)[C@@H](NC(=O)[C@H](CC(C)C)N(C)C(=O)[C@H](CCCCN)NC(=O)[C@@H](N)CCC(N)=O)C(C)C)[C@@H](C)CC)[C@@H](C)CC)C(=O)N[C@H](C(=O)NCC(=O)NCC(=O)N[C@H](C(=O)N[C@H](C(=O)O)C(C)C)C(C)C)C(C)C [F3-LF] (H-QK[NMeL]V[NMeF]FAEDFFFNKGAIIGL[Nle]VGGVV-OH) | 0.431 | 0.431 | 0.0376 | 0.0376 | 0.0417 µM | – | – | – | – | –
CCCC[C@H](NC(=O)[C@H](CC(=O)O)NC(=O)[C@H](CCC(=O)O)NC(=O)[C@H](C)NC(=O)[C@H](Cc1ccccc1)NC(=O)[C@H](Cc1ccccc1)N(C)C(=O)[C@@H](NC(=O)[C@H](CC(C)C)N(C)C(=O)[C@H](CCCCN)NC(=O)[C@@H](N)CCC(N)=O)C(C)C)C(=O)N[C@@H](CCCC)C(=O)N[C@@H](CCCC)C(=O)N[C@@H](CC(N)=O)C(=O)N[C@@H](CCCCN)C(=O)NCC(=O)N[C@@H](C)C(=O)N[C@H](C(=O)N[C@H](C(=O)NCC(=O)N[C@@H](CC(C)C)C(=O)N[C@@H](CCCC)C(=O)N[C@H](C(=O)NCC(=O)NCC(=O)N[C@H](C(=O)N[C@H](C(=O)O)C(C)C)C(C)C)C(C)C)[C@@H](C)CC)[C@@H](C)CC [Nle3-LF] (H-QK[NMeL]V[NMeF]FAED[Nle][Nle][Nle]NKGAIIGL[Nle]VGGVV-OH) | 0.0111 | 0.0111 | 0.0554 | – | 0.0821 µM | 0.0554 | fully suppressed | – | – | –
CCCC[C@H](NC(=O)[C@H](CC(C)C)NC(=O)CNC(=O)[C@@H](NC(=O)[C@@H](NC(=O)[C@H](C)NC(=O)CNC(=O)[C@H](CCCCN)NC(=O)[C@H](CC(N)=O)NC(=O)[C@H](CC(C)C)NC(=O)[C@H](CC(C)C)NC(=O)[C@H](CC(C)C)NC(=O)[C@H](CC(=O)O)NC(=O)[C@H](CCC(=O)O)NC(=O)[C@H](C)NC(=O)[C@H](Cc1ccccc1)NC(=O)[C@H](Cc1ccccc1)N(C)C(=O)[C@@H](NC(=O)[C@H](CC(C)C)N(C)C(=O)[C@H](CCCCN)NC(=O)[C@@H](N)CCC(N)=O)C(C)C)[C@@H](C)CC)[C@@H](C)CC)C(=O)N[C@H](C(=O)NCC(=O)NCC(=O)N[C@H](C(=O)N[C@H](C(=O)O)C(C)C)C(C)C)C(C)C [L3-LF] (H-QK[NMeL]V[NMeF]FAEDLLLNKGAIIGL[Nle]VGGVV-OH) | 0.00264 | – | 0.143 | – | 0.133 µM | – | fully suppressed | – | – | –
CCCC[C@H](NC(=O)[C@H](CC(=O)O)NC(=O)[C@H](CCC(=O)O)NC(=O)[C@H](C)NC(=O)[C@H](Cc1ccccc1)N(C)C(=O)[C@H](Cc1ccccc1)NC(=O)[C@H](C(C)C)N(C)C(=O)[C@H](CC(C)C)NC(=O)[C@H](CCCCN)NC(=O)[C@@H](N)CCC(N)=O)C(=O)N[C@@H](CCCC)C(=O)N[C@@H](CCCC)C(=O)N[C@@H](CC(N)=O)C(=O)N[C@@H](CCCCN)C(=O)NCC(=O)N[C@@H](C)C(=O)N[C@H](C(=O)N[C@H](C(=O)NCC(=O)N[C@@H](CC(C)C)C(=O)N[C@@H](CCCC)C(=O)N[C@H](C(=O)NCC(=O)NCC(=O)N[C@H](C(=O)N[C@H](C(=O)O)C(C)C)C(C)C)C(C)C)[C@@H](C)CC)[C@@H](C)CC [Nle3-VF] (H-QKL[NMeV]F[NMeF]AED[Nle][Nle][Nle]NKGAIIGL[Nle]VGGVV-OH) | – | 0.0145 | – | – | 0.065 µM | – | fully suppressed | 0.0145 | 0.0695 | –
CCCC[C@H](NC(=O)[C@H](CC(C)C)NC(=O)CNC(=O)[C@@H](NC(=O)[C@@H](NC(=O)[C@H](C)NC(=O)CNC(=O)[C@H](CCCCN)NC(=O)[C@H](CC(N)=O)NC(=O)[C@H](CC(C)C)NC(=O)[C@H](CC(C)C)NC(=O)[C@H](CC(C)C)NC(=O)[C@H](CC(=O)O)NC(=O)[C@H](CCC(=O)O)NC(=O)[C@H](C)NC(=O)[C@H](Cc1ccccc1)N(C)C(=O)[C@H](Cc1ccccc1)NC(=O)[C@H](C(C)C)N(C)C(=O)[C@H](CC(C)C)NC(=O)[C@H](CCCCN)NC(=O)[C@@H](N)CCC(N)=O)[C@@H](C)CC)[C@@H](C)CC)C(=O)N[C@H](C(=O)NCC(=O)NCC(=O)N[C@H](C(=O)N[C@H](C(=O)O)C(C)C)C(C)C)C(C)C [L3-VF] (H-QKL[NMeV]F[NMeF]AEDLLLNKGAIIGL[Nle]VGGVV-OH) | 0.038 | 0.038 | 0.0773 | 0.0773 | 0.113 µM and 0.112 µM | – | – | – | – | –
TAMRA-oAb42 | – | – | – | – | – | – | – | – | – | 66.7213

Reference: paper PMC9411207, “Designed peptides as nanomolar cross-amyloid inhibitors acting via supramolecular nanofiber co-assembly” (Nature Communications, 2022)
